Where “and” joins values, the source holds several entries; their conditions need not be identical. Equal entries are not always repeated.
System: Brassica plants comprising mutant AHAS alleles
Assay: Field trial, pre-planting treatment (0, 10, 20, 30 g a.i./ha), two locations in Canada: ERG, EST1, EST2, PPTOX, VIG1, VIG2, VIG3 scores
Type: in vivo, Brassica napus
From the text: Tests were set up and conducted to asses the growth and performance of plants comprising AHAS full knock-out alleles, and to further analyze the correlation between the presence of full knockout and missense AHAS genes in Brassica plants and plant growth and herbicide tolerance of the Brassica plants in the field. To this end, the Brassica plants identified in Example 1 and 2 were backcrossed two times with an elite parent line, and subsequently selfed twice to obtain homozygous plants (BC2S2). Plants were grown as row plots in a split plot design with three replicates (main plots=herbicide treatments, subplots=genotypes) at two locations in Canada. Treatment pre-planting was carried out on the soil about two days before sowing with a dose of 0 (treatment A), 10 (treatment B), 20 (treatment C) or 30 (treatment D) g a.i./ha of thiencarbazone methyl. Herbicide tolerance was measured by scoring for different parameters. The parameter emergence (ERG) was scored at the cotyledon stage on a scale 1-9, where 1 means late emergence and 9 means early emergence. Establishment was scored 14 days after sowing (EST1) and 21 days after sowing (EST2). Scores were from 1 to 9, where 1 is the worst establishment (least plants that emerged), and 9 is the best establishment (most plants emerged). Phytotoxicity (PPTOX) was determined after establishment. Plants were evaluated on a scale of 1 to 9, where 1=completely yellowing, 5=50% of plant is yellow and 9=no yellowing. The vigor scores (see above) were determined at 1-2 leaf stage (VIG1), 7 days after VIG1 (VIG2) and 14 days after VIG1 (VIG3). The average values (Av) and standard deviations (SD) of the scores for the different parameters are represented in Table 7a-g.
Further, the contribution of the knock-out allele to herbicide tolerance conferred by the missense allele was calculated. First, the scores were corrected for a possible effect of the growth per se, independent of herbicide treatment. To this end, the scores for treatments B, C and D were divided by the scores for treatment A for the same genotype and for the same parameter (corrected herbicide tolerance scores). Next, the effect of the knock-out allele to these corrected herbicide tolerance scores obtained by the missense allele was calculated. Therefore, the corrected herbicide tolerance scores for the missense—knock-out allele combination was divided by the corrected herbicide tolerance scores for the missense allele—wild-type combination. In case the knock-out allele has no effect on herbicide tolerance conferred by the missense allele, this ratio should be 1. In case the knock-out allele positively contributes to the herbicide tolerance conferred by the missense allele, this ratio should be higher than 1. The results for the contribution of the knock-out allele to herbicide tolerance conferred by the missense allele as calculated above are shown in table 8.

[1] = AHAS1 HETO108/AHAS3 HETO104, 30 g a.i./ha pre-planting (D), Location A
[2] = AHAS1 HETO108/AHAS3 HETO104, 30 g a.i./ha pre-planting (D), Location B
[3] = AHAS1 HETO108/AHAS3 HETO111, 10 g a.i./ha pre-planting (B), Location A
[4] = AHAS1 HETO108/AHAS3 HETO111, 10 g a.i./ha pre-planting (B), Location B
[5] = AHAS1 HETO108/AHAS3 HETO111, 20 g a.i./ha pre-planting (C), Location A
[6] = AHAS1 HETO108/AHAS3 HETO111, 20 g a.i./ha pre-planting (C), Location B
[7] = AHAS1 HETO108/AHAS3 HETO111, 30 g a.i./ha pre-planting (D), Location A
[8] = AHAS1 HETO108/AHAS3 HETO111, 30 g a.i./ha pre-planting (D), Location B
[9] = AHAS1 HETO108/AHAS3 WT, 10 g a.i./ha pre-planting (B), Location A
[10] = AHAS1 HETO108/AHAS3 WT, 10 g a.i./ha pre-planting (B), Location B
[11] = AHAS1 HETO108/AHAS3 WT, 20 g a.i./ha pre-planting (C), Location A
[12] = AHAS1 HETO108/AHAS3 WT, 20 g a.i./ha pre-planting (C), Location B
[13] = AHAS1 HETO108/AHAS3 WT, 30 g a.i./ha pre-planting (D), Location A
[14] = AHAS1 HETO108/AHAS3 WT, 30 g a.i./ha pre-planting (D), Location B
[15] = AHAS1 HETO112, AHAS3 HETO111, treatment B 10 g a.i./ha pre-planting, Location A
[16] = AHAS1 HETO112, AHAS3 HETO111, treatment B 10 g a.i./ha pre-planting, Location B
[17] = AHAS1 HETO112, AHAS3 HETO111, treatment C 20 g a.i./ha pre-planting, Location A
[18] = AHAS1 HETO112, AHAS3 HETO111, treatment C 20 g a.i./ha pre-planting, Location B
[19] = AHAS1 HETO112, AHAS3 HETO111, treatment D 30 g a.i./ha pre-planting, Location A
[20] = AHAS1 HETO112, AHAS3 HETO111, treatment D 30 g a.i./ha pre-planting, Location B
[21] = AHAS1 HETO112, AHAS3 WT, treatment B 10 g a.i./ha pre-planting, Location A

For `COC(=O)c1csc(C)c1S(=O)(=O)NC(=O)n1nc(OC)n(C)c1=O` [thiencarbazone-methyl, methyl 4-[(4,5-dihydro-3-methoxy-4-methyl-5-oxo-1H-1,2,4-triazol-1-yl)carbonylsulfamoyl]-5-methylthiophene-3-carboxylate], the “vigor2 (VIG2) score, Av” value (AHAS1 HETO108/AHAS3 HETO104, 20 g a.i./ha pre-planting (C), Location B) was 6.33, the “establishment (EST2) score, Av” value [1] was 5.33 and the “phytotoxicity (PPTOX) score, Av” value [1] was 5.00. The “vigor2 (VIG2) score, Av” value [1] was 5.67, the “establishment (EST2) score, Av” value [2] was 5.33 and the “phytotoxicity (PPTOX) score, Av” value [2] was 6.33. The “vigor2 (VIG2) score, Av” value [2] was 6.00, the “establishment (EST2) score, Av” value [3] was 6.33 and the “vigor1 (VIG1) score, Av” value [3] was 6.33. For the same compound, the “vigor2 (VIG2) score, Av” value [3] was 7.33, the “establishment (EST2) score, Av” value [4] was 6.00 and the “vigor2 (VIG2) score, Av” value [4] was 7.00. The “establishment (EST2) score, Av” value [5] was 5.67, the “phytotoxicity (PPTOX) score, Av” value [5] was 5.00 and the “vigor2 (VIG2) score, Av” value [5] was 6.33. For the same compound, the “establishment (EST2) score, Av” value [6] was 5.33, the “vigor1 (VIG1) score, Av” value [6] was 5.00 and the “vigor2 (VIG2) score, Av” value [6] was 6.33. The “establishment (EST2) score, Av” value [7] was 6.00, the “phytotoxicity (PPTOX) score, Av” value [7] was 6.00 and the “vigor1 (VIG1) score, Av” value [7] was 6.00. The “vigor2 (VIG2) score, Av” value [7] was 7.00, the “establishment (EST2) score, Av” value [8] was 4.00 and the “vigor2 (VIG2) score, Av” value [8] was 4.33. For the same compound, the “establishment (EST2) score, Av” value [9] was 6.67 and 6.33, the “phytotoxicity (PPTOX) score, Av” value [9] was 7.00 and the “vigor1 (VIG1) score, Av” value [9] was 7.00 and 6.00. The “vigor2 (VIG2) score, Av” value [9] was 8.33 and 7.67, the “establishment (EST2) score, Av” value [10] was 5.00 and 5.33 and the “phytotoxicity (PPTOX) score, Av” value [10] was 6.33 and 5.00. The “vigor1 (VIG1) score, Av” value [10] was 6.00, the “vigor2 (VIG2) score, Av” value [10] was 5.33 and 5.67 and the “establishment (EST2) score, Av” value [11] was 5.00 and 5.67. For the same compound, the “phytotoxicity (PPTOX) score, Av” value [11] was 5.00, the “vigor1 (VIG1) score, Av” value [11] was 6.00 and the “vigor2 (VIG2) score, Av” value [11] was 6.67. For the same compound, the “phytotoxicity (PPTOX) score, Av” value [12] was 7.00, the “vigor1 (VIG1) score, Av” value [12] was 5.00 and the “vigor2 (VIG2) score, Av” value [12] was 6.33 and 7.67. For the same compound, the “establishment (EST2) score, Av” value [13] was 5.67 and 5.33, the “phytotoxicity (PPTOX) score, Av” value [13] was 5.00 and the “vigor2 (VIG2) score, Av” value [13] was 6.33. The “phytotoxicity (PPTOX) score, Av” value [14] was 5.00, the “vigor1 (VIG1) score, Av” value [14] was 5.00 and the “vigor2 (VIG2) score, Av” value [14] was 5.00 and 5.33. For the same compound, the “emergence (ERG) score Av” value [15] was 4.33, the “establishment (EST1) score Av, 14 days after sowing” value (shortened to “establishment (EST1) score Av”) [15] was 5.00 and the “emergence (ERG) score Av” value [16] was 4.33. For the same compound, the “establishment (EST1) score Av” value [16] was 5.67, the “emergence (ERG) score Av” value [17] was 5.00 and the “establishment (EST1) score Av” value [17] was 5.33. For the same compound, the “emergence (ERG) score Av” value [18] was 4.00, the “establishment (EST1) score Av” value [18] was 5.00 and the “emergence (ERG) score Av” value [19] was 5.33. For the same compound, the “establishment (EST1) score Av” value [19] was 5.67, the “emergence (ERG) score Av” value [20] was 3.00 and the “establishment (EST1) score Av” value [20] was 3.67. For the same compound, the “emergence (ERG) score Av” value [21] was 1.67, the “establishment (EST1) score Av” value [21] was 1.67 and the “emergence (ERG) score Av” value (AHAS1 HETO112, AHAS3 WT, treatment B 10 g a.i./ha pre-planting, Location B) was 1.67.
